Measurements from ChEMBL document CHEMBL5120786, “Metabolomics-assisted discovery of a new anticancer GLS-1 inhibitor chemotype from a nortopsentin-inspired library: From phenotype screening to target identification” (Eur J Med Chem, 2022).
Calls of active or inactive are those of the source. The rule behind the calls is not given here.

What was measured:
[1] = test system: Panel NCI-60 (60 carcinoma cell lines); assay: Anticancer activity against human NCI-60 cells assessed as cell growth inhibition incubated for 72 hrs by MTT assay; format: functional
MCF7 = assay: Cytotoxicity against human MCF7 cells assessed as cell viability incubated for 72 hrs by MTT assay; format: functional, cell-based
MCF-10A = assay: Cytotoxicity against human MCF-10A cells assessed as cell viability incubated for 72 hrs by MTT assay; format: functional, cell-based
HepG2 [2] = assay: Cytotoxicity against human HepG2 cells assessed as cell viability incubated for 72 hrs by MTT assay; format: functional, cell-based
HepG2 [3] = assay: Cytotoxicity against human HepG2 cells assessed as cell viability incubated for 72 hrs in presence of alpha-ketoglutarate by MTT assay; format: functional, cell-based; details: HepG2, 72 h
HepG2 [4] = assay: Downregulation of GSH level in human HepG2 cells; format: functional, cell-based
HepG2 [5] = assay: Upregulation of stearoyl-carnitine level in human HepG2 cells; format: functional, cell-based
HepG2 [6] = assay: Inhibition of cell invasion in human HepG2 cells assessed as reduction in MMP-9 level at 2.5 uM after 8 hrs by densitometric analysis; format: functional; design: scale not given: the % may be the effect or the level left
HepG2 [7] = assay: Inhibition of cell invasion in human HepG2 cells assessed as reduction in MMP-2 level at 2.5 uM after 8 hrs by densitometric analysis; format: functional; design: scale not given: the % may be the effect or the level left
HepG2 [8] = assay: Downregulation of spermidine level in human HepG2 cells; format: functional, cell-based
[9] = Cytotoxicity against human U-87 MG cells overexpressing GLS-1; format: functional, cell-based, U-87MG ATCC
[10] = biological target: T1, Glutaminase liver isoform, mitochondrial (Homo sapiens, UniProt Q9UI32); assay: Inhibition of human recombinant GLS-2 by measuring glutamate production incubated for 1 hr by fluorescence based multimode plate reader method
T1 sequence (Q9UI32 whole entry): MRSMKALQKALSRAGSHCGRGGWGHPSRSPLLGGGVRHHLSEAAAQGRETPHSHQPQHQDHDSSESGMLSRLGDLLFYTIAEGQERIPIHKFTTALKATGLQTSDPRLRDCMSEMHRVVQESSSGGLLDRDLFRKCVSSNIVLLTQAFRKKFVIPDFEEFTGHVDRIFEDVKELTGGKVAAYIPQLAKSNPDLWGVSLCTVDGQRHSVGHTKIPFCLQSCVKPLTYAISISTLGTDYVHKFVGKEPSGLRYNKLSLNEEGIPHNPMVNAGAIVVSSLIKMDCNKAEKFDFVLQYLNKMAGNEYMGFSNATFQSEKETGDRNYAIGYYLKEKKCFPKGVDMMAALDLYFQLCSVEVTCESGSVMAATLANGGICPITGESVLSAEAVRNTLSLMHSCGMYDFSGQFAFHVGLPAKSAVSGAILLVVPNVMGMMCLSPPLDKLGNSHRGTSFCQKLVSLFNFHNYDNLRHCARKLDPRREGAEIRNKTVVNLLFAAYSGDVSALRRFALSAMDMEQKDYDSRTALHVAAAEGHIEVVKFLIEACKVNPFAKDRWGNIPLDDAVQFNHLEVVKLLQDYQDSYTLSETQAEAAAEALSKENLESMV

SAOS-2 = assay: Cytotoxicity against human SAOS-2 cells overexpressing GLS-1; format: functional, cell-based
A-375 = assay: Cytotoxicity against human A-375 cells overexpressing GLS-1; format: functional, cell-based
MIA PaCa-2 = assay: Cytotoxicity against human MIA PaCa-2 cells overexpressing GLS-1; format: functional, cell-based
HepG2 [11] = assay: Inhibition of cell migration in human HepG2 cells assessed as reduction in wound closure at 1.5 uM measured after 24 to 48 hrs by wound healing assay based contrat-phase microscopic analysis; format: functional; details: time 24-48 hrs
HepG2 [12] = assay: Anticlonogenic activity against human HepG2 cells assessed as reduction of colony formation at 0.5 uM incubated for 14 days by crystal violet staining method; format: functional; design: scale not given: the % may be the effect or the level left; details: time 14 day
HepG2 [13] = assay: Downregulation of polyamine pathway in human HepG2 cells assessed as increase in intracellular ROS production; format: functional, cell-based
A549 = assay: Cytotoxicity against human A549 cells overexpressing GLS-1; format: functional, cell-based
HepG2 [14] = assay: Induction of cell cycle arrest in human HepG2 cells assessed as decrease in cyclin-B1 expression at 1.5 uM measured after 8 to 24 hrs by Western blotting analysis relative to control; format: functional; design: scale not given: the % may be the effect or the level left; details: time 8-24 hrs
HepG2 [15] = assay: Downregulation of c-Myc level in human HepG2 cells; format: functional, cell-based
[16] = biological target: T2, Glutaminase kidney isoform, mitochondrial (Homo sapiens, UniProt O94925); assay: Inhibition of human recombinant GLS-1 by measuring glutamate production incubated for 1 hr by fluorescence based multimode plate reader method
T2 sequence (O94925 whole entry): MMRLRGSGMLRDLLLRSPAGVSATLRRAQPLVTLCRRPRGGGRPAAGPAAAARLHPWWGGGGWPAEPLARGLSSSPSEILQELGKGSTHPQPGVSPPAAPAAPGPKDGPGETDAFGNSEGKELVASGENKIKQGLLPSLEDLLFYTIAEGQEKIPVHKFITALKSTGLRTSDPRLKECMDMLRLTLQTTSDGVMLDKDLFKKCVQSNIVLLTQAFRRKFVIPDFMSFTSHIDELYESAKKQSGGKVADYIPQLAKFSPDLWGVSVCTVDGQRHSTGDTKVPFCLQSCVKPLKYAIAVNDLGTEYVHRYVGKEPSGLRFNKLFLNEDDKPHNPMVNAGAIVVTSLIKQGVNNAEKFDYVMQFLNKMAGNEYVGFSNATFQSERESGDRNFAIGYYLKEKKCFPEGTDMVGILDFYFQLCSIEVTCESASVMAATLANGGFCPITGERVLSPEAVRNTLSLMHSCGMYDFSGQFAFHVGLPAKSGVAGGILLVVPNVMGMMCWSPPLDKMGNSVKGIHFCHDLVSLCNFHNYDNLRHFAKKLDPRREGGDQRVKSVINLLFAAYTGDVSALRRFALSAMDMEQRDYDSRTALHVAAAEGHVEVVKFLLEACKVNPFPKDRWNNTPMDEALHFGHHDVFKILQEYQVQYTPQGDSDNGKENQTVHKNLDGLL

HepG2 [17] = assay: Inhibition of cell invasion in human HepG2 cells assessed as reduction in MMP-9 level at 2.5 uM after 72 hrs by densitometric analysis; format: functional; design: scale not given: the % may be the effect or the level left
HepG2 [18] = assay: Inhibition of cell invasion in human HepG2 cells assessed as reduction in MMP-2 level at 2.5 uM after 72 hrs by densitometric analysis; format: functional; design: scale not given: the % may be the effect or the level left
HepG2 [19] = assay: Induction of cell cycle arrest in human HepG2 cells assessed as decrease in cyclin-B1 expression at 1.5 uM measured after 72 hrs by Western blotting analysis relative to control; format: functional; design: scale not given: the % may be the effect or the level left

Fc1ccc2c(c1)c(-c1nc(-c3c[nH]c4ncccc34)cs1)cn2CCCN1CCCCC1
GI50 ([1]; read-out: GI50): 1.28 µM
GI50 ([1]; read-out: pGI50 (converted)): 3.72 µM
Activity (MCF7): Active
Activity (MCF-10A): Active

COc1ccc2c(c1)c(-c1nc(-c3c[nH]c4ncccc34)cs1)cn2CCO
Activity (HepG2 [2]): Active
Activity (MCF7): Active

OCCn1cc(-c2nc(-c3c[nH]c4ncccc34)cs2)c2cc(Br)ccc21
Activity (HepG2 [2]): Active
Activity (MCF7): Active

Cn1cc(-c2csc(-c3cn(CCO)c4ccccc34)n2)c2cccnc21
Activity (HepG2 [2]): Active
Activity (MCF7): Active

Cn1cc(-c2csc(-c3cn(CCCCN4CCOCC4)c4ccccc34)n2)c2cccnc21
Activity (MCF-10A): Active

Cn1cc(-c2csc(-c3cn(CCCCN4CCCCC4)c4ccc(F)cc34)n2)c2cccnc21
GI50 ([1]; read-out: GI50): 1.46 µM
GI50 ([1]; read-out: pGI50 (converted)): 16.2 µM

c1cnc2[nH]cc(-c3csc(-c4cn(CCCN5CCCCC5)c5ccccc45)n3)c2c1
GI50 ([1]; read-out: GI50): 1.1 µM
GI50 ([1]; read-out: pGI50 (converted)): 2.34 µM
Activity (MCF7): Active
Activity (MCF-10A): Active

COc1ccc2c(c1)c(-c1nc(-c3cn(C)c4ncccc34)cs1)cn2CCCCN1CCCCC1
Activity (HepG2 [2]): Active
GI50 ([1]; read-out: GI50): 1.07 µM
GI50 ([1]; read-out: pGI50 (converted)): 1.91 µM
Activity (MCF7): Active

COc1ccc2c(c1)c(-c1nc(-c3c[nH]c4ncccc34)cs1)cn2CCN1CCCCC1
Activity (HepG2 [2]): Active
Activity (MCF7): Active

Cn1cc(-c2csc(-c3cn(CCCCN4CCOCC4)c4ccc(F)cc34)n2)c2cccnc21
Activity (MCF-10A): Active

COc1ccc2c(c1)c(-c1nc(-c3c[nH]c4ncccc34)cs1)cn2CCCCN1CCCCC1
GI50 ([1]; read-out: GI50): 1.18 µM
GI50 ([1]; read-out: pGI50 (converted)): 1.95 µM

COc1ccc2c(c1)c(-c1nc(-c3c[nH]c4ncccc34)cs1)cn2CCCN1CCOCC1
Activity (HepG2 [2]): Active
GI50 ([1]; read-out: GI50): 0.48 µM
GI50 ([1]; read-out: pGI50 (converted)): 4.07 µM
Activity (MCF7): Active

Cn1cc(-c2csc(-c3cn(CCN4CCOCC4)c4ccc(F)cc34)n2)c2cccnc21
Activity (HepG2 [2]): Active
GI50 ([1]; read-out: GI50): 1.52 µM
GI50 ([1]; read-out: pGI50 (converted)): 5.62 µM
Activity (MCF7): Active

Fc1ccc2c(c1)c(-c1nc(-c3c[nH]c4ncccc34)cs1)cn2CCCN1CCOCC1
Activity (MCF-10A): Active

c1cnc2[nH]cc(-c3csc(-c4cn(CCCCN5CCCCC5)c5ccccc45)n3)c2c1
Activity (HepG2 [2]): Active
Activity (MCF7): Active

Cn1cc(-c2csc(-c3cn(CCO)c4ccc(Br)cc34)n2)c2cccnc21
Activity (HepG2 [2]): Active
Activity (MCF7): Active

COc1ccc2c(c1)c(-c1nc(-c3cn(C)c4ncccc34)cs1)cn2CCCCN1CCOCC1
GI50 ([1]; read-out: GI50): 0.02 µM
GI50 ([1]; read-out: pGI50 (converted)): 12 µM
Activity (MCF-10A): Active

Br.Fc1ccc2c(c1)c(-c1nc(-c3c[nH]c4ncccc34)cs1)cn2CCCCN1CCOCC1
EC50 (HepG2 [3]): 27.2 µM
Activity (HepG2 [4]): Active
Activity (HepG2 [5]): Active
Activity (HepG2 [6]): 50%
Activity (HepG2 [7]): 20%
Activity (HepG2 [8]): Active
EC50 (HepG2 [2]; HepG2, 72 h): 3.25 µM
EC50 [9]: 3.63 µM
EC50 [10]: 12.9 µM
EC50 (SAOS-2): 4.85 µM
EC50 (A-375): 5.84 µM
EC50 (MIA PaCa-2): 6.98 µM
Activity (HepG2 [11]): Active
Activity (HepG2 [12]): <=70%
Activity (HepG2 [13]): Active
EC50 (A549): 8.47 µM
Activity (HepG2 [14]): 50%
Activity (HepG2 [15]): Active
EC50 [16]: 3.96 µM
EC50 (MCF7; MCF7, 72 h): 23.1 µM
Activity (HepG2 [17]): 75%
Activity (HepG2 [18]): 80%
EC50 (MCF-10A): 29.1 µM
Activity (HepG2 [19]): 75%

COc1ccc2c(c1)c(-c1nc(-c3c[nH]c4ncccc34)cs1)cn2CCCN1CCCCC1
GI50 ([1]; read-out: GI50): 1.19 µM
GI50 ([1]; read-out: pGI50 (converted)): 3.31 µM
Activity (MCF7): Active
Activity (MCF-10A): Active

COc1ccc2c(c1)c(-c1nc(-c3cn(C)c4ncccc34)cs1)cn2CCN1CCCCC1
Activity (MCF7): Active
Activity (MCF-10A): Active

COc1ccc2c(c1)c(-c1nc(-c3c[nH]c4ncccc34)cs1)cn2CCCCN1CCOCC1
GI50 ([1]; read-out: GI50): 0.22 µM
GI50 ([1]; read-out: pGI50 (converted)): 5.25 µM
